Where a name gives a salt, the structure may show the parent alone.
What was measured:
cMet enzyme = cMet enzyme (Homo sapiens, UniProt P08581); assay: cMet Homogeneous Time Resolved Fluorescence (HTRF) in vitro assay; format: biochemical; conditions: relative IC50; read-out: c-Met IC50 (HTRF)
Description: This assay is based on HTRF technology and it is used to detect the phosphorylation of biotin labeled tyrosine peptide by cMet enzyme. After the reaction is completed, XL665 labeled streptavidin is used to recognize the biotin unit and a Europium (Eu3+) labeled anti-phospho-tyrosine antibody is used to recognize the phosphorylated tyrosine. The detection process relies on the transfer of energy between the excited Eu3+ and the XL665 labeled streptavidin. The aim of this protocol is to calculate the ability of test compounds to inhibit the phosphorylation of the product of this reaction and calculate their relative IC50 values.
A reference compound, if desired, may be prepared as a 1 mM stock solution in 100% DMSO and test compounds are prepared as 10 mM stock solutions in 100% DMSO. 1 mM reference compound and 10 mM test compounds are pre-diluted to 8 μM and 80 μM 10% DMSO solutions in a 96-well dilution plate. Compounds are serially diluted (1:3) using Tecan Freedom EVO 200 and 10-point dilution curves are generated for each of the compounds tested. 10 μL of serially diluted compounds are transferred to a 96-well assay plate using Temo (Tecan). […] The assay plate is incubated at RT for 60 min before reading the fluorescence signals at 620 nm emission and 665 nm […] in a Victor3 instrument (PerkinElmer Corporation). […]

[1] = biological target: T1, Met (pY1349) in NCl-H460 cells (Homo sapiens, UniProt P08581); assay: HGF stimulated Met (pY1349) NCI-H460 cell-based ELISA; conditions: HGF 100 ng/mL stimulated NCI-H460 cells; read-out: relative IC50, H460 assay (c-Met phosphorylation)
T1 construct: host or cells: NCI-H460
T1 sequence (P08581 25-1390): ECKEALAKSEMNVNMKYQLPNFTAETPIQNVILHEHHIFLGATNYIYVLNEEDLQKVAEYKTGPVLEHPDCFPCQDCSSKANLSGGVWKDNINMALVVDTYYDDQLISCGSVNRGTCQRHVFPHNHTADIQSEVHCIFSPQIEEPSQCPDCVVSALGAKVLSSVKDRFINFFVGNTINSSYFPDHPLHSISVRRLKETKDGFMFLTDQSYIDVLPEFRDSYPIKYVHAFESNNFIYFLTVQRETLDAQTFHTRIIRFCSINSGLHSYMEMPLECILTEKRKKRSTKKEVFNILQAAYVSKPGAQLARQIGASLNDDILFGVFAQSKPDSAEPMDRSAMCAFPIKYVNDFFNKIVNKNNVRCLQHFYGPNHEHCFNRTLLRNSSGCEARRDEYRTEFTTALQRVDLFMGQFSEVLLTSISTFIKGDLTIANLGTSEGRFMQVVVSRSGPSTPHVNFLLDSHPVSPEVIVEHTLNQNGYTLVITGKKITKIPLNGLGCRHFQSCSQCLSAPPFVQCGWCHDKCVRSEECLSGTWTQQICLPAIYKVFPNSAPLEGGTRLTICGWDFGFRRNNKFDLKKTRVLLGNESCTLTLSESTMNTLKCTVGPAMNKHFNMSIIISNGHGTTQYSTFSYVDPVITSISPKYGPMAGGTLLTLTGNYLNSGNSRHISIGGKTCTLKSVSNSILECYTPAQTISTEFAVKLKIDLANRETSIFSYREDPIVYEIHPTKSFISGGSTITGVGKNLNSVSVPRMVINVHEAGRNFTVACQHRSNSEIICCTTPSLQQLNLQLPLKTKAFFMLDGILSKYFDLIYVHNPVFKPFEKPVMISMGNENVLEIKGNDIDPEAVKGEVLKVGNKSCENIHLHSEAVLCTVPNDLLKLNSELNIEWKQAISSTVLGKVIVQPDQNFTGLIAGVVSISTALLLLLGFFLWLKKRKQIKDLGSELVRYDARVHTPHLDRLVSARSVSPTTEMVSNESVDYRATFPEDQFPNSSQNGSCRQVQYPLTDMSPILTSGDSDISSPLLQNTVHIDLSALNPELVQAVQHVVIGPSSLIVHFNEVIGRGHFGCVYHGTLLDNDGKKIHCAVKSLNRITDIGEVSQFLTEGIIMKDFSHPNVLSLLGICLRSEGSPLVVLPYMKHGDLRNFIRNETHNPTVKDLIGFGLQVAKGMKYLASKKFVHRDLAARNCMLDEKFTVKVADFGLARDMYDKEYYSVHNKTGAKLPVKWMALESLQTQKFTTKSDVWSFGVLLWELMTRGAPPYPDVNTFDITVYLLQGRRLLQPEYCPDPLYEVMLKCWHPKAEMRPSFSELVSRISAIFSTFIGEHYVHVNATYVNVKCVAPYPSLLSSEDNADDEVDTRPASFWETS
Procedure: NCl—H460 cells (purchased from ATCC) are cultured in RPMI 1640 media (Invitrogen) supplemented with 10% Fetal Bovine Serum (FBS) and plated (prior to becoming 70% confluent) in 96-well flat-bottom plates at a density of 20,000 cells per well in 80 μL volume. The cells are then incubated overnight in a cell culture incubator (5% CO2, 95% Relative Humidity (RH) and 37° C.) and allowed to attach to the plate. The following morning the cells are washed with 2 volumes of a Reduced Serum Media (RSM, RPMI 1640 media supplemented with 0.5% FBS). After removal of the last wash, 80 μL of RSM is added to each well of the cell plates. The cell plates are incubated for 2.5 h in a cell culture incubator, and then dosed with compounds. Compound inhibitors are first solubilized at 10 mM in 100% DMSO and then diluted to 100 μM with 2% DMSO RSM. […] After 1 h capture (at RT) the MSD® plate wells are washed with 1× Tris Wash Buffer, and then 150 μL of 1× Read Buffer T (with surfactant, MSD®) is added. Immediately after the addition of the Read Buffer, the plates are analyzed with a SECTOR 6000 MSD® Imager plate reader. Relative IC50 values are determined using MSD activity units by calculating percent inhibition with respect to on-plate “MIN” and “MAX” controls and then fitting the percent inhibition values and ten-point dose response data to a four-parameter logistic equation.

cMet enzyme, sequence (P08581 25-1390): as above

Q: `Cn1cc(-c2ccc3nnc(Sc4ccc5nn(C)cc5c4)n3n2)cn1` [mesylate salt form of example 1] was tested. Which IC50 (cMet enzyme) did it give?
A: 25 nM

Q: And the IC50 [1]?
A: 38 nM

Reference: patent US8268836B2, “Compound useful as a c-Met inhibitor” (Eli Lilly and Company, priority 2010, dated 2012)
